Literature values as cited in US7977378B1, “Compositions and methods for enhancing weight-loss by cyclical administration of compounds” (priority 2007, dated 2011).

Assays:
hepatic TG = conditions: 60 mg/kg·day
[1] = test system: hepatic glucose-6-phosphatase
adipocyte = conditions: in vitro
[2] = up to 200 mg kg-1
[3] = test system: endothelium-intact rat aorta; conditions: equal potency
[4] = test system: guinea-pig isolated right atria
[5] = test system: contractile effect of noradrenaline; conditions: 2×10(−6) and 1×10(−7) M
[6] = test system: contractile responses evoked by phenylephrine and high K+; conditions: 4 approximately 12 microg/mL

In the case of `Cn1c(=O)c2c(ncn2C)n(C)c1=O` [caffeine], the “Increase of energy expenditure” value (after ingestion) is given as 13%, the “Increase of oxidative FFA disposal” value (after ingestion) is given as 44% and the “Share of lipids oxidized” value (after ingestion) is given as 24%. For the same compound, the “Share of lipids recycled” value (after ingestion) was 76%, the “Oxidative FFA disposal” value (after ingestion (from 236+/−21)) was 340+/−16 micro mol/min and the “Non-oxidative FFA disposal” value (after ingestion (from 455+/−66)) was 1054+/−242 micro mol/min. For the same compound, the “Increase of non-oxidative FFA disposal” value (after ingestion, P<0.01) was 2.3 fold and the “Increase of lipid turnover” value (steady state (last hour of the test) after ingestion, P<0.005) was 2 fold.

In the case of `O=C(/C=C/c1ccc(O)c(O)c1)O[C@@H]1C[C@](O)(C(=O)O)C[C@@H](O)[C@H]1O` [chlorogenic acid], the “Level of hepatic TG” value (hepatic TG) is given as “significantly reduced”, the “Effect on cell cycle” value (3T3-L1 preadipocytes) is given as “cell cycle arrest in the G1 phase” and the “Inhibition of hepatic glucose-6-phosphatase” value [1] is given as “selectively inhibit”.

For `C=CCSSC=CC[S+]([O-])CC=C` (mixture of isomers) [ajoene], the Adipocyte apoptosis (adipocyte) is given as “induced”.

For `COc1ccc([C@@H]2CC(=O)c3c(O)cc(O)cc3O2)cc1O` [hesperitin], the “Effect on intestinal transit” value [2] is listed as “no effect”.

For `C[n+]1c2n(c(=O)c3ccccc31)CCc1c-2[nH]c2ccccc12` [dehydroevodiamine], the Vasodilatory effect [3] is listed as “vasodilatory effect”.

For TNF-alpha, the Adipocyte apoptosis (adipocyte) is given as “induced”.

In the case of `O=C(O)/C=C/c1cccc(O)c1` [m-coumaric acid], the “Effect on cell cycle” value (3T3-L1 preadipocytes) is given as “cell cycle arrest in the G1 phase”.

For evodiamine, the Vasodilatory effect [3] is listed as “vasodilatory effect”, the Catecholamine secretion (bovine adrenal medulla) is listed as “stimulate” and the “Insensitivity of the cells to acetylcholine or high K+ stimulation” value (bovine adrenal medulla) is listed as “reversed insensitivity”. For the same compound, the “Inotropic and chronotropic effects” value [4] was “positive inotropic and chronotropic effects”.

In the case of `O=C(O)/C=C/c1ccccc1O` [o-coumaric acid], the “Effect on cell cycle” value (3T3-L1 preadipocytes) is listed as “cell cycle arrest in the G1 phase”.

For `O=C1C[C@@H](c2ccc(O)cc2)Oc2cc(O)cc(O)c21` [naringenin], the “Contractile effect of noradrenaline” value [5] is given as “increased”.

In the case of (−)-epigallocatechin gallate [EGCG], the “Effect on contractile responses evoked by phenylephrine and high K+” value [6] is listed as “did not affect” and the Adipocyte apoptosis (adipocyte) is listed as “induced”.

In the case of catechin, the “Effect on intestinal transit” value [2] is listed as “no effect”.
